Like-named read-outs stand apart in the source and are kept apart here.
Key:
CDK13 = CDK13 (Homo sapiens, UniProt Q14004); assay: CDK13 kinase inhibitory activity assay (33P-ATP filter binding); assay type: biochemical
Outline: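 Radiometric filter-binding read-out: after 20 min compound–enzyme/substrate pre-incubation across 9 concentrations, reaction started with ^33P-γ-ATP and run 120 min at room temperature. Filter-bound ^33P-substrate measured after 0.75 % phosphoric acid washes; remaining activity versus DMSO gives IC50.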

Cyclin K = assay: Analysis of Cyclin K degradation ability in HCC70 breast cancer cells (western blot); assay type: cell-based; conditions: 8 hours, compared to the negative control group (DMSO), FIGs. 1 to 3
Protocol: In order to confirm the Cyclin K degradation ability of the Example compounds, HCC70 breast cancer cells and MKN45 gastric cancer cells were cultured in RPMI-1640 medium supplemented with 10 % FBS, and then the cells were collected to prepare cell suspensions. The HCC70 breast cancer cell suspension was dispensed at a cell number of 2.0 X 10^6 per 6-well and cultured in a 5 % CO2 cell incubator at 37 °C for 24 hours, and the MKN45 gastric cancer cell suspension was dispensed at a cell number of 5.0 X 10^6 per 6-well and cultured in a 5 % CO2 cell incubator at 37 °C for 24 hours. The next day, each Example compound dissolved and diluted in DMSO across 4 to 5 concentration ranges and a negative control group (DMSO-treated group) were added to the 6-wells, and the HCC70 breast cancer cells were treated for 8 hours while the MKN45 gastric cancer cells were treated with the compounds for 8 hours or 24 hours. After completion of the compound treatment, the medium was removed, each cell was washed with PBS, and then 100 µL of RIPA buffer for cell lysis was added to each 6-well to collect cell lysates. The protein concentration of the cell lysates was quantified by the […], and loading buffer was added to adjust the protein concentration to 30 µg, followed by reaction at 85 °C for 10 minutes, centrifugation, and standing at room temperature. After electrophoresis on a 4-12 % Bis-Tris gel, proteins were transferred to a nitrocellulose membrane. Primary antibodies, Cyclin K (1:1000, Bethyl Lab) and Vinculin (1:1000, Sigma), were attached to the membrane, respectively, and then labeled using a secondary antibody (1:10000, LI-COR).

HCC70 cells = assay: Breast cancer cell proliferation inhibitory activity, HCC70; assay type: cell-based; conditions: Homo sapiens, 72 hours, CellTiter Glo, relative IC50
Protocol: Experiments were conducted using three types of breast cancer cell lines to measure the cell proliferation inhibitory ability of each Example compound. For HCC70 cells, 100 µL of cell suspension was dispensed into a 96-well plate using RPMI1640 (Invitrogen) medium containing 10 % FBS, followed by incubation in a cell incubator at 37 °C and 5 % CO2. For BT-20 cells, 100 µL of cell suspension was dispensed into a 96-well plate using EMEM (Invitrogen) medium containing 10 % FBS, followed by incubation in a cell incubator at 37 °C and 5 % CO2. For MDA-MB-436 cells, 100 µL of cell suspension was dispensed into a 96-well plate using L-15 (Invitrogen) medium containing 10 % FBS, followed by incubation in a cell incubator at 37 °C and 0 % CO2. The next day, each Example compound dissolved and diluted in DMSO across 9 concentration ranges and a DMSO control group were treated on the cells for 72 hours. After completion of the compound treatment, 100 µL of CellTiter Glo (Promega) reagent was added to each well of the 96-wellplate, followed by shaking for 10 minutes and standing at room temperature for 10 minutes. After inserting the 96-well plate into an Envision plate reader (PerkinElmer), luminescence signals were measured. Relative IC50 values were calculated by fitting a dose-response curve using XL fit (IDBS Ltd) software.
The breast cancer cell proliferation inhibitory activities of the Example compounds measured by the method described above were evaluated according to the following criteria, and the results are presented in Table 15.

CDK12 = CDK12 (Homo sapiens, UniProt Q9NYV4); assay: Cellular CDK12 inhibitory activity assay (Ser2 phosphorylation of RNA polymerase II subunit B1 CTD in MDA-MB-231 cells); assay type: cell-based; design: using MDA-MB-231 breast cancer cells; endogenous in cells; host or cells: MDA-MB-231; conditions: MDA-MB-231 cells, 6 hours treatment; read-out: pRpbl CTD S2 IC50
Sequence of CDK12 (Q9NYV4 whole entry, species assumed): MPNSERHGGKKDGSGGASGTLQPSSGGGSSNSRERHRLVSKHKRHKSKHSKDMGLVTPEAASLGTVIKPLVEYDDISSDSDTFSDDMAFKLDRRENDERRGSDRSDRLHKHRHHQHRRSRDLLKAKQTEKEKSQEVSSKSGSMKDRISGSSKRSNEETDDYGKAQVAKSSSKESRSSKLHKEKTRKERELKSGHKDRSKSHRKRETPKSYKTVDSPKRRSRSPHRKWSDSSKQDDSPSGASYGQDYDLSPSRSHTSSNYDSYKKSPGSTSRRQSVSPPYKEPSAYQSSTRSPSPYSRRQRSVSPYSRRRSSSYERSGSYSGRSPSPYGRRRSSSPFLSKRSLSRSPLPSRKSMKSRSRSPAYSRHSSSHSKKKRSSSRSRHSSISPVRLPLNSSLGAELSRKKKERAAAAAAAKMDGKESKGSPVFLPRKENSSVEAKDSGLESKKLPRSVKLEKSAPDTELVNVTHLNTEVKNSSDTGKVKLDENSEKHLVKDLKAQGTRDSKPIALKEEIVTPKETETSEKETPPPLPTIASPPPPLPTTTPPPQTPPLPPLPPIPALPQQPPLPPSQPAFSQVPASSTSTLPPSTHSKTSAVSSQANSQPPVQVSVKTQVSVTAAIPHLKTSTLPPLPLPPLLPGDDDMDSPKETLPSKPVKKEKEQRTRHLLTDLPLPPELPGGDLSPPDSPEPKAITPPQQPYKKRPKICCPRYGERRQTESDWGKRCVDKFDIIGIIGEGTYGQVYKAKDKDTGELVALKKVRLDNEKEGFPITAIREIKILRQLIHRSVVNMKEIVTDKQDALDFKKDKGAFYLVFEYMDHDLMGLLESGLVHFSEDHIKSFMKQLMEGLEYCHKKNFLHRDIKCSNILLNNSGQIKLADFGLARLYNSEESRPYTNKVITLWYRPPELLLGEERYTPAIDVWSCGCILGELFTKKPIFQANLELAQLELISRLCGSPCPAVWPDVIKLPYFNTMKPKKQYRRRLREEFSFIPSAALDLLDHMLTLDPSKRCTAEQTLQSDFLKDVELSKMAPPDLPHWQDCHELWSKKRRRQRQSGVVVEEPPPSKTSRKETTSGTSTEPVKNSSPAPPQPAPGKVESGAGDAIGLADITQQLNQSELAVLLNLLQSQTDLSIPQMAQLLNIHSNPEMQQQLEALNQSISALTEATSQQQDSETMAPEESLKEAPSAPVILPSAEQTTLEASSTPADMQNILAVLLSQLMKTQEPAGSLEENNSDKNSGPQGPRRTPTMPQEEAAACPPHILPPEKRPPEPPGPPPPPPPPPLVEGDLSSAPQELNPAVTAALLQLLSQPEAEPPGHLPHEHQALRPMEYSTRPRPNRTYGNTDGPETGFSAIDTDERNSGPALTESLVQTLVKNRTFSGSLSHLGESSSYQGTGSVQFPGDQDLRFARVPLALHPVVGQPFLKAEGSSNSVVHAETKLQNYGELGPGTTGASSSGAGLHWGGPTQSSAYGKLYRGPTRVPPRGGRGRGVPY
Sequence of CDK12 (O75909 whole entry partner, species assumed): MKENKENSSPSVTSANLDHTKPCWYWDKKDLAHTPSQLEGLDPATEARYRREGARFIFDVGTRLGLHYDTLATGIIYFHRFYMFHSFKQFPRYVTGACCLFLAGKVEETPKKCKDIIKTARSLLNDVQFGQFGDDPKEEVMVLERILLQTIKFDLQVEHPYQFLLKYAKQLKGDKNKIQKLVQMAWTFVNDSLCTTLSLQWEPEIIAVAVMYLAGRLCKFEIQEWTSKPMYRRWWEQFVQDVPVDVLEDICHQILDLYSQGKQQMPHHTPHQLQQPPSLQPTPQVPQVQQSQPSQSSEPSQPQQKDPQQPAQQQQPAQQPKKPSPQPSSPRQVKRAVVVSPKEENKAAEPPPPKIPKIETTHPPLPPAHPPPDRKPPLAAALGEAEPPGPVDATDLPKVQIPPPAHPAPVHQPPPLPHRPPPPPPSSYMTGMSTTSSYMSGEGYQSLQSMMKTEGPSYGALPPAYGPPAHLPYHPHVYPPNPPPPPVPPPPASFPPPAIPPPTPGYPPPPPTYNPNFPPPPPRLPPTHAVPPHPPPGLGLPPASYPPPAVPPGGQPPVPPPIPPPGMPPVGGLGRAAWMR
Outline: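 MDA-MB-231 cells in L-15 with 10 % FBS were treated with compound at 9 concentrations for 6 h at 37 °C, 0 % CO2. In-Cell Western read phospho-Ser2 and total RNA polymerase II CTD on a Li-COR Odyssey; IC50 from 4-parameter dose-response fit.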

[1] = kinase reaction 120 minutes, 33P-gamma-ATP, read-out: CDK13 IC50

Sequence of CDK13 (Q14004 whole entry, species assumed): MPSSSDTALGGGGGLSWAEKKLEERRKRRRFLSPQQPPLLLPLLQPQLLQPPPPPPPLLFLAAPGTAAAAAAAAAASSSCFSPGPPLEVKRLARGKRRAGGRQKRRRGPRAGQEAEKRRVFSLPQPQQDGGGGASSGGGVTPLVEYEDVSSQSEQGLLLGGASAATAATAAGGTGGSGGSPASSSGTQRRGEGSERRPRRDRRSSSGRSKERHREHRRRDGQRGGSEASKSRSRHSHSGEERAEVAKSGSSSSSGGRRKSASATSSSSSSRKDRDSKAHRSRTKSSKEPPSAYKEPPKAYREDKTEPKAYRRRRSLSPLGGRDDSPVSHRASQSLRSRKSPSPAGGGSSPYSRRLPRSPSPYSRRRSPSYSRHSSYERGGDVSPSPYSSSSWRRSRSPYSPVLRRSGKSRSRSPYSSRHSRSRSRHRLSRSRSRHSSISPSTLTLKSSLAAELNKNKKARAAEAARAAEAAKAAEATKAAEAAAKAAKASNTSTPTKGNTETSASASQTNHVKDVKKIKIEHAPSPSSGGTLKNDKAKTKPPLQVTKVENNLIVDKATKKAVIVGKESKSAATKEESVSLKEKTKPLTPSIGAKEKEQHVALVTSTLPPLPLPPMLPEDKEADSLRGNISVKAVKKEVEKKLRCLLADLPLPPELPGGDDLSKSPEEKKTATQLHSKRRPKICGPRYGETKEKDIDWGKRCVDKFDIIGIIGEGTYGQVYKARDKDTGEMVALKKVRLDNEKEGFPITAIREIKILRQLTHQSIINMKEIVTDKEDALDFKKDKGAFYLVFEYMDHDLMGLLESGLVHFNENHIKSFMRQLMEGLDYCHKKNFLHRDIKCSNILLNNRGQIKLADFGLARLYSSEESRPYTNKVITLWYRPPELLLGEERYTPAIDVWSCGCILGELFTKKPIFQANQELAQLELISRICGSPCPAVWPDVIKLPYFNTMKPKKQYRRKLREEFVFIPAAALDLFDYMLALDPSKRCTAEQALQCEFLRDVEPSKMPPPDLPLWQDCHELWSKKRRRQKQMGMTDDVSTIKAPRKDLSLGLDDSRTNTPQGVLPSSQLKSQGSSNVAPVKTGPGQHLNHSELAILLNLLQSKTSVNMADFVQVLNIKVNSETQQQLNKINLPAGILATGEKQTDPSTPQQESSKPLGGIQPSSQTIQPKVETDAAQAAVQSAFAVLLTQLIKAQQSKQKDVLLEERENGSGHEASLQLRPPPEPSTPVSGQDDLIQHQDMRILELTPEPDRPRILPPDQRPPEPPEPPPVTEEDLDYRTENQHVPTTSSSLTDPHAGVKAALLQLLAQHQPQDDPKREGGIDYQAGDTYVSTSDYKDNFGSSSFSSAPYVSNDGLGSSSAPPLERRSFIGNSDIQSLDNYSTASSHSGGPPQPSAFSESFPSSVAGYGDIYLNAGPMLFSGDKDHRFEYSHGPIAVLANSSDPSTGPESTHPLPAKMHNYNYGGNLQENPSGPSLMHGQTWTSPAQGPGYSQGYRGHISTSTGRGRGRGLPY
Sequence of CDK13 (O75909 whole entry partner, species assumed): as the sequence (O75909 whole entry partner, species assumed) above

Row | SMILES | IC50 (CDK13) | Cyclin K degradation ability (Cyclin K) | IC50 (HCC70 cells) | IC50 (CDK12) | IC50 (CDK13; [1])
1 | CN1CCN(c2cc(NCc3nc4ccc(F)c(F)c4[nH]3)c3ncc(C(F)(F)F)n3n2)CC1 [Example 8, N-((6,7-difluoro-1H-benzo[d]imidazol-2-yl)methyl)-6-(4-methylpiperazin-1-yl)-3-(trifluoromethyl)imidazo[1,2-b]pyridazin-8-amine] | < 100 nM | strongly degrade Cyclin K | ≤ 50 nM | < 300 nM | –
2 | CN1CCN(c2cc(NCc3nc4cc(Cl)c(Cl)cc4[nH]3)c3ncc(C(F)(F)F)n3n2)CC1 [Example 29, N-((5,6-dichloro-1H-benzo[d]imidazol-2-yl)methyl)-6-(4-methylpiperazin-1-yl)-3-(trifluoromethyl)imidazo[1,2-b]pyridazin-8-amine] | – | – | ≤ 50 nM | < 300 nM | < 100 nM
3 | N#CC1CN(c2cc(NCc3nc4cc(Cl)c(Cl)cc4[nH]3)c3ncc(C(F)(F)F)n3n2)C1 [Example 30, 1-(8-(((5,6-dichloro-1H-benzol[d]imidazol-2-yl)methyl)amino)-3-(trifluoromethyl)imidazo[1,2-b]pyridazin-6-yl)azetidine-3-carbonitrile] | – | strongly degrade Cyclin K | ≤ 50 nM | < 300 nM | < 100 nM
4 | Nc1ncc(-c2cc(NCc3nc4cc(Cl)c(Cl)cc4[nH]3)c3ncc(C(F)(F)F)n3n2)cn1 [Example 40] | – | strongly degrade Cyclin K | – | < 300 nM | < 100 nM
